Tests used:
[1] = Clarity (solubility) of mixtures of fluoroalkyloxy alkane with silicone oil 1,000 cS; type: physicochemical; parameters: key: ++: the mixture is clear after stirring at room temperature; +: the mixture is opalescent after stirring at room temperature, it becomes clear after heating at 37° C
Protocol: Various mixtures comprising a fluoroalkyloxy alkane obtained according to Examples 1, 3 and 4 and a silicone oil having a viscosity of 1,000 cS (at 20° C.) were prepared.
Table 3 contains the amounts of fluoroalkyloxy alkane in the various mixtures (expressed as weight % on the total weight of the mixture), and the result in terms of clarity of the solution at different temperatures.

[2] = Clarity (solubility) of mixtures of fluoroalkyloxy alkane with silicone oil 5,000 cS; type: physicochemical; parameters: key: ++: the mixture is clear after stirring at room temperature; +: the mixture is opalescent after stirring at room temperature, it becomes clear after heating at 37° C
Protocol: Various mixtures comprising a fluoroalkyloxy alkane obtained according to Examples 1, 3 and 4 and a silicone oil having a viscosity of 5,000 cS (at 20° C.) were prepared.
Table 4 contains the amounts of fluoroalkyloxy alkane in the various mixtures (expressed as weight % on the total weight of the mixture), and the result in terms of clarity of the solution at different temperatures.

[3] = 33% by weight fluoroalkyloxy alkane in silicone oil 1,000 cS (at 20° C.)
[4] = 43% by weight fluoroalkyloxy alkane in silicone oil 1,000 cS (at 20° C.)
[5] = 50% by weight fluoroalkyloxy alkane in silicone oil 1,000 cS (at 20° C.)
[6] = 60% by weight fluoroalkyloxy alkane in silicone oil 1,000 cS (at 20° C.)
[7] = 90% by weight fluoroalkyloxy alkane in silicone oil 1,000 cS (at 20° C.)
[8] = 33% by weight fluoroalkyloxy alkane in silicone oil 5,000 cS (at 20° C.)
[9] = 43% by weight fluoroalkyloxy alkane in silicone oil 5,000 cS (at 20° C.)
[10] = 50% by weight fluoroalkyloxy alkane in silicone oil 5,000 cS (at 20° C.)
[11] = 60% by weight fluoroalkyloxy alkane in silicone oil 5,000 cS (at 20° C.)
[12] = 90% by weight fluoroalkyloxy alkane in silicone oil 5,000 cS (at 20° C.)

| clarity of the solution [1, 3] | clarity of the solution [1, 4] | clarity of the solution [1, 5] | clarity of the solution [1, 6] | clarity of the solution [1, 7] | clarity of the solution [2, 8] | clarity of the solution [2, 9] | clarity of the solution [2, 10] | clarity of the solution [2, 11] | clarity of the solution [2, 12] | clarity of the solution ([1]; 20% by weight fluoroalkyloxy alkane in silicone oil 1,000 cS (at 20° C.)) | clarity of the solution ([2]; 20% by weight fluoroalkyloxy alkane in silicone oil 5,000 cS (at 20° C.)) | Structure (SMILES) |
| --- | --- | --- | --- | --- | --- | --- | --- | --- | --- | --- | --- | --- |
| ++ | ++ | ++ | ++ | ++ | ++ | ++ | ++ | ++ | ++ | – | – | CCCOCCC(F)(F)C(F)(F)C(F)(F)C(F)(F)F [CF3(CF2)3CH2CH2O(CH2)2CH3] |
| ++ | ++ | ++ | ++ | ++ | ++ | ++ | ++ | ++ | ++ | – | – | CCCCCOCCC(F)(F)C(F)(F)C(F)(F)C(F)(F)F [CF3(CF2)3CH2CH2O(CH2)4CH3] |
| ++ | + | + | – | – | ++ | + | + | – | – | ++ | ++ | CCCCCOCCC(F)(F)C(F)(F)C(F)(F)C(F)(F)C(F)(F)C(F)(F)F [CF3(CF2)5CH2CH2O(CH2)4CH3] |
